{
  "source": "patent US5853742A",
  "about": "“Cosmetic compositions containing lactate dehydrogenase inhibitors” (priority 1997, dated 1998)",
  "key": {"[1]": {"test_system": "Normal human epidermal keratinocytes (NHEK)", "experiment": "Keratinocyte proliferation (DNA content, fluorometric)", "format": "cell-based", "method": "Normal human epidermal keratinocytes (NHEK) derived from neonatal foreskin were used for all experiments. Media were purchased from Clonetics Corp., San Diego, Calif. Cell stocks frozen in passage 2 were grown in Keratinocyte Growth Medium (KGM) and passaged when 70-80% confluent. Cells were seeded in 96 well plates (Corning) at a density of 7500 cells/well in KGM. After 24 hours, cells were rinsed and dosed with test compounds in 200 μl of Keratinocyte Basal Medium (KBM). Plates were incubated for three days at 37° C., 5% CO2. Cell proliferation was estimated by assaying for DNA content by a fluorometric method described by Rago et al. (Analytical Biochemistry, 191:31-34, 1990). Medium was removed and cells were rinsed with phosphate buffered saline solution. 100 μl of sterile distilled water was added to each well and plates were frozen at -70° C. for one and a half hours. Plates were thawed for one hour at which time 100 μl of a 20 ug/ml solution of Bisbenzimide H33258 fluorochrome (Calbiochem Corp., La Jolla, Calif.) was added to each well. The fluorochrome was prepared just prior to use in 10 mM Tris, 1 mM EDTA, 4M NaCl, pH 7.4. Plates were read in a Millipore Cytofluor fluorescent plate reader to quantify DNA (excitation 360 nm, emission 460 nm). Percent increase over control was calculated from blank-corrected readings as (treated-untreated)/(untreated)*100%."}, "[2]": {"test_system": "Neonatal human dermal fibroblasts", "experiment": "Collagen synthesis (secreted procollagen 1 immunoassay)", "format": "cell-based", "conditions": "0.2 to 20 mM, 48 hours, serum-free medium", "description": "Neonatal human dermal fibroblasts were purchased from Clonetics Corp., San Diego, Calif. All materials for cell culture were purchased from Life Technologies, N.Y. Cells were maintained in DMEM with 10% fetal bovine serum and used in passages 5-10, Confluent 96-well plates containing fibroblasts were treated with test materials (0.2 to 20 mM) in serum-free medium for 48 hours. […] This was carried out in a BioDot SF apparatus according to the manufacturer's instructions (BioRad Labs, CA) and the blot was developed using a Vectastain Kit (PK6104, Vector Labs, CA) as per the manufacturer's directions. Color intensity was quantitated using an Ultroscan XL densitometer (Pharmacia LKB). Fold increase was calculated as (density of treated)/untreated."}},
  "note": "Values joined by “and” are separate entries in the source; they are usually repeats but may differ in a detail not shown here. Equal entries are not always repeated.",
  "data": [
    {"compound": "NC(=O)C(=O)O", "note": "[Oxamate]", "values": [
      {"measurement": "activation at 25 µM", "setting": "[1]; Homo sapiens, NHEK, 72 h, Table 3, oxamate 0.025 mM, read-out: % Increase Over Control (keratinocyte proliferation)", "result": 20, "unit": "%"},
      {"measurement": "activation at 313 µM", "setting": "[1]; Homo sapiens, NHEK, 72 h, Table 3, oxamate 0.313 mM, read-out: % Increase Over Control (keratinocyte proliferation)", "result": 18, "unit": "%"},
      {"measurement": "activation at 1250 µM", "setting": "[1]; Homo sapiens, NHEK, 72 h, Table 3, oxamate 1.25 mM, read-out: % Increase Over Control (keratinocyte proliferation)", "result": 28, "unit": "%"},
      {"measurement": "activation at 20000 µM", "setting": "[1]; Homo sapiens, NHEK, 72 h, Table 3, oxamate 20 mM, read-out: % Increase Over Control (keratinocyte proliferation)", "result": 0, "unit": "%"},
      {"measurement": "% Increase Over Control (keratinocyte proliferation)", "setting": "[1]; Table 3, oxamate 0.025 mM", "result": 19, "unit": "%"},
      {"measurement": "% Increase Over Control (keratinocyte proliferation)", "setting": "[1]; Table 3, oxamate 0.313 mM", "result": 32, "unit": "%"},
      {"measurement": "% Increase Over Control (keratinocyte proliferation)", "setting": "[1]; Table 3, oxamate 1.25 mM", "result": "24% and 40%"},
      {"measurement": "% Increase Over Control", "setting": "[1]; Table 11, oxamate 2.5 mM, pyruvate 0", "result": 0, "unit": "%"},
      {"measurement": "% Increase Over Control", "setting": "[1]; Table 11, oxamate 5.0 mM, pyruvate 0", "result": 0, "unit": "%"},
      {"measurement": "% Increase Over Control", "setting": "[1]; Table 11, oxamate 10 mM, pyruvate 0", "result": 0, "unit": "%"},
      {"measurement": "% Increase Over Control", "setting": "[1]; Table 11, oxamate 15 mM, pyruvate 0", "result": 0, "unit": "%"},
      {"measurement": "% Increase Over Control", "setting": "[1]; Table 11, oxamate 20 mM, pyruvate 0", "result": 0, "unit": "%"},
      {"measurement": "% Increase Over Control", "setting": "[1]; Table 12, oxamate 0.313 mM, malate 0", "result": 32, "unit": "%"},
      {"measurement": "% Increase Over Control", "setting": "[1]; Table 12, oxamate 0.625 mM, malate 0", "result": 19, "unit": "%"},
      {"measurement": "% Increase Over Control", "setting": "[1]; Table 12, oxamate 1.25 mM, malate 0", "result": 40, "unit": "%"},
      {"measurement": "% Increase Over Control", "setting": "[1]; Table 12, oxamate 2.5 mM, malate 0", "result": 25, "unit": "%"},
      {"measurement": "% Increase Over Control", "setting": "[1]; Table 12, oxamate 5.0 mM, malate 0", "result": 20, "unit": "%"},
      {"measurement": "% Increase Over Control", "setting": "[1]; Table 12, oxamate 10 mM, malate 0", "result": 0, "unit": "%"},
      {"measurement": "Maximum fold over Control (collagen synthesis)", "setting": "[2]", "result": 1.4, "unit": "fold"}
    ]}
  ]
}
